Measured values published in patent publication US12540118B2, “Dendrene amide compound, bactericide and use thereof” (Jiangsu Flag Chemical Industry Co., Ltd., priority 2020, dated 2026).

Columns and labels:
Fusarium fujikura [1] = assay: Therapeutic activity against rice bakanae disease; type: in vivo; details: 5 μg/mL, solvent DMSO
From the text: (§1) Test of protective activity and therapeutic activity of Compound 1 against rice bakanae disease.
(§2) The test and investigation method refers to SOP-SC-1112 rice bakanae disease potting method in disinfectant rolls written by KANGZHUO and GUBAOGEN in “Standard operation specification for testing biological activity of pesticides”.
(§3) The phenamacril is a mainstream medicament for preventing and treating the rice bakanae disease at present, resistant strains are more and more along with long-time use, and […] strains showing sensitivity and one strain showing resistance to the […] are selected as test strains.
(§4) Four Fusarium fujikura SX18-32, SX18-50, SX18-59 and SX18-63 are selected for testing strains, and the current mainstream commercial bactericide phenamacril is selected as a positive control. Wherein SX18-32, SX18-50 and SX18-59 show sensitivity to phenamacril and SX18-63 show resistance to phenamacril.

Fusarium fujikura [2] = assay: Protective activity against rice bakanae disease; type: in vivo; details: 5 μg/mL, solvent DMSO
From the text: as §1, §2, §3, §4

succinate dehydrogenase = molecular target: T1, succinate dehydrogenase (Sus scrofa, UniProt A5GZW8+D0VWV4+Q007T0); assay: Enzyme activity assay, succinate dehydrogenase (DCIP reduction); type: biochemical, porcine; details: read-out: Inhibitors (10 μM, SQR)
T1 construct: isolated from porcine hearts; from tissue; host or cells: porcine heart
Summary of the method: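 Porcine heart succinate dehydrogenase (2 nM) in 100 mM sodium phosphate pH 7.4, 0.3 mM EDTA, 20 mM sodium succinate and 53 μM DCIP at 23° C with stirring. DCIP reduction followed at 600 nm (ε 21 mM^−1 cm^−1); linear slope minus baseline gives initial rate.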

Erysiphe graminis = Erysiphe graminis potting method; type: in vivo; details: Blumeria graminis; 100 mg/L; read-out: Erysiphe graminis control rating
Experimental: The fungicidal activity of the control agents and target compounds are determined. The test and investigation method refers to SOP-SC-1116 Erysiphe graminis potting method in disinfectant rolls written by KANGZHUO and GUBAOGEN in “Standard operation specification for testing biological activity of pesticides”.

Sphaerotheca fuliginea = Sphaerotheca fuliginea potting method; type: in vivo; details: Podosphaera fuliginea; 100 mg/L; read-out: Sphaerotheca fuliginea control rating
Experimental: The fungicidal activity of the control agents and target compounds are determined. The test and investigation method refers to SOP-SC-1101 sphaerotheca fuliginea potting method in disinfectant rolls written by KANGZHUO and GUBAOGEN in “Standard operation specification for testing biological activity of pesticides”.

T1 sequence (Q0QF01 43-664 partner): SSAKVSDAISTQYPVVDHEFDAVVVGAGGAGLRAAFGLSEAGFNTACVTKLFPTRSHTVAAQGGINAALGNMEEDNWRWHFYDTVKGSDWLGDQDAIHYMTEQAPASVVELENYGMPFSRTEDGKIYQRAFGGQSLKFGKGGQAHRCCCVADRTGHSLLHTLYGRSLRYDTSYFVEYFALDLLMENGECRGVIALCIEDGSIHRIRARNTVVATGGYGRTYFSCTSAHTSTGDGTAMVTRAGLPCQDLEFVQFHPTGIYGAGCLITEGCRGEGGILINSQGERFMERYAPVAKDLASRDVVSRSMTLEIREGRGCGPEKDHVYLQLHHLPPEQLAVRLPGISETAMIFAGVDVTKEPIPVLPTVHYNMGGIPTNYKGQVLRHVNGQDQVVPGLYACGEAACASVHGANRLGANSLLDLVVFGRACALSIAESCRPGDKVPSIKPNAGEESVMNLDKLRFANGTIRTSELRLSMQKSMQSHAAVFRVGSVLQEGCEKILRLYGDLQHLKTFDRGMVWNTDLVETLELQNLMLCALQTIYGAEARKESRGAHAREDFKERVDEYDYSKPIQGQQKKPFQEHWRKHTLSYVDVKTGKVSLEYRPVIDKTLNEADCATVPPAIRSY
T1 sequence (Q007T0 29-280): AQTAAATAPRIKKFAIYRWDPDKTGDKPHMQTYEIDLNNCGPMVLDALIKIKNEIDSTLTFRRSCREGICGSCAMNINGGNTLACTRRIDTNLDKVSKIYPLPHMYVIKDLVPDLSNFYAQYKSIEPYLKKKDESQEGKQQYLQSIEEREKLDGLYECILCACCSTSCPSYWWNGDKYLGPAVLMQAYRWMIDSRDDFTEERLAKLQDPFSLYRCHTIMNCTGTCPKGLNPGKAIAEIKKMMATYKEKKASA
T1 sequence (D0VWV4 30-169): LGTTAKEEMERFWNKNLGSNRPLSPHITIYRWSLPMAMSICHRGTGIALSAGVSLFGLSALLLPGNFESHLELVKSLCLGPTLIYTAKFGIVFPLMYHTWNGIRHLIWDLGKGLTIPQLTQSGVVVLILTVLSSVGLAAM
T1 sequence (A5GZW8 57-159 limits assumed): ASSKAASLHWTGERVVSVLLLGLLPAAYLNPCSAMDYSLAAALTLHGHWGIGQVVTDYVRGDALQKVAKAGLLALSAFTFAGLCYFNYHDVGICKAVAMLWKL

In the case of `CCOC(=O)C(C#N)=C(N)c1ccccc1` [Phenamacril, reference compound], the Therapeutic activity (Fusarium fujikura [1]; strain SX18-32 (S)) is reported as 23.8%, the Therapeutic activity (Fusarium fujikura [1]; strain SX18-59 (S)) is reported as 50.0% and the Therapeutic activity (Fusarium fujikura [1]; strain SX18-59 (S), listed as phenamacril) is reported as “about 50%”. For the same molecule, the Therapeutic activity (Fusarium fujikura [1]; strain SX18-63 (R)) was 0%, the Therapeutic activity (Fusarium fujikura [1]; strain SX18-63 (R), listed as phenamacril) was “almost no therapeutic activity” and the Protective activity (Fusarium fujikura [2]; strain SX18-32 (S)) was 83.6%. For the same molecule, the Protective activity (Fusarium fujikura [2]; strain SX18-59 (S)) was 58.8% and the Protective activity (Fusarium fujikura [2]; strain SX18-63 (R)) was 19.6%.

With `Cn1nc(C(F)F)c(C(=O)N(CC(=C(Cl)Cl)c2cc(S(C)(=O)=O)ccc2Cl)C2CC2)c1F` [Compound 162] the inhibition at 10 µM (succinate dehydrogenase) was > 90%, the pest or weed control at 100 µg/mL (Erysiphe graminis) was 80 to 100% and the pest or weed control at 100 µg/mL (Sphaerotheca fuliginea) was 80 to 100%.

For `C=C(CN(C(=O)c1c(C(F)F)nn(C)c1F)C1CC1)c1ccc(C(C)C)cc1C` [Compound 41], the inhibition at 10 µM (succinate dehydrogenase) was > 90%, the pest or weed control at 100 µg/mL (Erysiphe graminis) was 80 to 100% and the pest or weed control at 100 µg/mL (Sphaerotheca fuliginea) was 80 to 100%.

With `C=C(c1ccc(C#CC2CC2)cc1F)C(C)N(C(=O)c1c(C(F)F)nn(C)c1F)C1CC1` (centres unmarked) [Compound 110] the inhibition at 10 µM (succinate dehydrogenase) was > 90%, the pest or weed control at 100 µg/mL (Erysiphe graminis) was 80 to 100% and the pest or weed control at 100 µg/mL (Sphaerotheca fuliginea) was 80 to 100%.

`Cc1ccc(C(C)(C)C)c(C(=C(Cl)Cl)C(C)N(C(=O)c2c(C(F)F)nn(C)c2F)C2CC2)c1` (centres unmarked) [Compound 199] was tested, and the inhibition at 10 µM (succinate dehydrogenase) was > 90%, the pest or weed control at 100 µg/mL (Erysiphe graminis) was 80 to 100% and the pest or weed control at 100 µg/mL (Sphaerotheca fuliginea) was 80 to 100%.

For `C=C(c1cccc(F)c1)C(C)N(C(=O)c1c(C(F)F)nn(C)c1F)C1CC1` (centres unmarked) [Compound 56], the inhibition at 10 µM (succinate dehydrogenase) was > 90%, the pest or weed control at 100 µg/mL (Erysiphe graminis) was 80 to 100% and the pest or weed control at 100 µg/mL (Sphaerotheca fuliginea) was 80 to 100%.

In the case of `C=C(c1ccc(F)c(F)c1)C(C)N(C(=O)c1c(C(F)F)nn(C)c1F)C1CC1` (centres unmarked) [Compound 62], the inhibition at 10 µM (succinate dehydrogenase) is reported as > 90%, the pest or weed control at 100 µg/mL (Erysiphe graminis) is reported as 80 to 100% and the pest or weed control at 100 µg/mL (Sphaerotheca fuliginea) is reported as 80 to 100%.

With `C=C(c1cc(C)ccc1C)C(C)N(C(=O)c1c(C(F)F)nn(C)c1F)C1CC1` (centres unmarked) [Compound 89] the inhibition at 10 µM (succinate dehydrogenase) was > 90%, the pest or weed control at 100 µg/mL (Erysiphe graminis) was 80 to 100% and the pest or weed control at 100 µg/mL (Sphaerotheca fuliginea) was 80 to 100%.

In the case of `Cn1nc(C(F)F)c(C(=O)N(CC(=C(Cl)Cl)c2ccc(C#CC3CC3)cc2Cl)C2CC2)c1F` [Compound 165], the inhibition at 10 µM (succinate dehydrogenase) is reported as > 90%, the pest or weed control at 100 µg/mL (Erysiphe graminis) is reported as 80 to 100% and the pest or weed control at 100 µg/mL (Sphaerotheca fuliginea) is reported as 80 to 100%.

For `C=C(c1cccc(Br)c1)C(C)N(C(=O)c1c(C(F)F)nn(C)c1F)C1CC1` (centres unmarked) [Compound 81], the inhibition at 10 µM (succinate dehydrogenase) was > 90%, the pest or weed control at 100 µg/mL (Erysiphe graminis) was 80 to 100% and the pest or weed control at 100 µg/mL (Sphaerotheca fuliginea) was 80 to 100%.

In the case of `Cc1cccc(C)c1C(=C(Cl)Cl)C(C)N(C(=O)c1c(C(F)F)nn(C)c1F)C1CC1` (centres unmarked) [Compound 195], the inhibition at 10 µM (succinate dehydrogenase) is reported as > 90%, the pest or weed control at 100 µg/mL (Erysiphe graminis) is reported as 80 to 100% and the pest or weed control at 100 µg/mL (Sphaerotheca fuliginea) is reported as 80 to 100%.

In the case of `CC(C(=C(Cl)Cl)c1cc(F)ccc1F)N(C(=O)c1c(C(F)F)nn(C)c1F)C1CC1` (centres unmarked) [Compound 180], the inhibition at 10 µM (succinate dehydrogenase) is reported as > 90%, the pest or weed control at 100 µg/mL (Erysiphe graminis) is reported as 80 to 100% and the pest or weed control at 100 µg/mL (Sphaerotheca fuliginea) is reported as 80 to 100%.

For `CC(C(=C(Cl)Cl)c1c(Cl)cc(Cl)cc1Cl)N(C(=O)c1c(C(F)F)nn(C)c1F)C1CC1` (centres unmarked) [Compound 175], the inhibition at 10 µM (succinate dehydrogenase) was > 90%, the pest or weed control at 100 µg/mL (Erysiphe graminis) was 80 to 100% and the pest or weed control at 100 µg/mL (Sphaerotheca fuliginea) was 80 to 100%.

With `Cn1nc(C(F)F)c(C(=O)N(CC(=C(Cl)Cl)c2c(Cl)cc(Cl)cc2Cl)C2CC2)c1F` [Compound 123] the inhibition at 10 µM (succinate dehydrogenase) was > 90%, the pest or weed control at 100 µg/mL (Erysiphe graminis) was 80 to 100% and the pest or weed control at 100 µg/mL (Sphaerotheca fuliginea) was 80 to 100%.

In the case of `C=C(CN(C(=O)c1c(C(F)F)nn(C)c1F)C1CC1)c1ccccc1Br` [Compound 3], the inhibition at 10 µM (succinate dehydrogenase) is reported as > 90%, the pest or weed control at 100 µg/mL (Erysiphe graminis) is reported as 80 to 100% and the pest or weed control at 100 µg/mL (Sphaerotheca fuliginea) is reported as 80 to 100%.

`Cc1ccc(C(C)(C)C)c(C(CN(C(=O)c2c(C(F)F)nn(C)c2F)C2CC2)=C(Cl)Cl)c1` [Compound 146] was tested, and the inhibition at 10 µM (succinate dehydrogenase) was > 90%, the pest or weed control at 100 µg/mL (Erysiphe graminis) was 80 to 100% and the pest or weed control at 100 µg/mL (Sphaerotheca fuliginea) was 80 to 100%.

With `Cn1nc(C(F)F)c(C(=O)N(CC(=C(Cl)Cl)c2ccc(S(C)(=O)=O)cc2Cl)C2CC2)c1F` [Compound 159] the inhibition at 10 µM (succinate dehydrogenase) was > 90%, the pest or weed control at 100 µg/mL (Erysiphe graminis) was 80 to 100% and the pest or weed control at 100 µg/mL (Sphaerotheca fuliginea) was 80 to 100%.

`C=C(c1cc(Cl)ccc1F)C(C)N(C(=O)c1c(C(F)F)nn(C)c1F)C1CC1` (centres unmarked) [Compound 99] was tested, and the inhibition at 10 µM (succinate dehydrogenase) was > 90%, the pest or weed control at 100 µg/mL (Erysiphe graminis) was 80 to 100% and the pest or weed control at 100 µg/mL (Sphaerotheca fuliginea) was 80 to 100%.
